pIC50: −log10 of the molar value.

In one experiment the target is human recombinant FAAH (Homo sapiens (Human), UniProt O00519). In words: In vitro inhibition of FAAH activity (fluorescent inhibitor screening kit, AMC arachidonoyl amide). Type of experiment: biochemical. To be noted: human recombinant FAAH; read-out: Inhibition on FAAH activity (IC50). The method in brief: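 Fluorogenic kit assay: AMC arachidonoyl amide is cleaved by human recombinant FAAH, read at 340-360/450-465 nm. Percent inhibition versus non-treated control; IC50 values derived from multiple compound concentrations where tested.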

A further experiment concerns the target human recombinant MAGL (Homo sapiens (Human), UniProt Q99685). In words: In vitro inhibition of MAGL activity (inhibitor screening kit, 4-nitrophenylacetate). Type of experiment: biochemical. The settings on record: human recombinant MAGL. The procedure, abridged: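 Percent inhibition derived from absorbance (405-412 nm) of treated wells relative to untreated enzyme control. Human recombinant MAGL with 4-nitrophenylacetate substrate, whose cleavage yields yellow 4-nitrophenol.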

Sequence of human recombinant FAAH (O00519 whole entry): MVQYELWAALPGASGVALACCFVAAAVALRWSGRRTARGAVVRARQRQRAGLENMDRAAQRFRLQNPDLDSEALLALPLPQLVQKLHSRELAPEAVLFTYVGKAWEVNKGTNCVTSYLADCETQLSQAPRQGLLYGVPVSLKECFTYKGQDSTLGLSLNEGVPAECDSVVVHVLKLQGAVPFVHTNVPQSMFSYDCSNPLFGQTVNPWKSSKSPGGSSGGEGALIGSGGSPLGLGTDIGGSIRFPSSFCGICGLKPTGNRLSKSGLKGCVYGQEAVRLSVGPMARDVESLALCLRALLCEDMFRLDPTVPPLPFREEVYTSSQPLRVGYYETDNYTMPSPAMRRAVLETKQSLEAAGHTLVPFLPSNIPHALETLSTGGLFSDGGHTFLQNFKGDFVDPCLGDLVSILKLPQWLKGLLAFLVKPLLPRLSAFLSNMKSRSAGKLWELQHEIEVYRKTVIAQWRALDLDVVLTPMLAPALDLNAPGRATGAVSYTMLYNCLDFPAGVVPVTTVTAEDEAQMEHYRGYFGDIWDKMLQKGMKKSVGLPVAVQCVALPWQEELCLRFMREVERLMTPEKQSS
Sequence of human recombinant MAGL (Q99685 whole entry): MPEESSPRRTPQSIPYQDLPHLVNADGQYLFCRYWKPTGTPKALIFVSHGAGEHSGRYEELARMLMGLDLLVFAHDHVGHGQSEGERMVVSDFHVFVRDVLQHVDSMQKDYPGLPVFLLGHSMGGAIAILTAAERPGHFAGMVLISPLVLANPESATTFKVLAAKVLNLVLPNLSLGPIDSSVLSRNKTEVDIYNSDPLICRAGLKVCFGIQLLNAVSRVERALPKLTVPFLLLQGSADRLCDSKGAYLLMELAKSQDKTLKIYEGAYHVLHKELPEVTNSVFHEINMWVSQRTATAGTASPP

For `O=C(NC1CCCCCC1)Oc1cccc(-c2cc(-c3nnco3)ccn2)c1` [Example 262, 3-(4-(1,3,4-oxadiazol-2-yl)pyridin-2-yl)phenyl cycloheptylcarbamate], the pIC50 is 7.00 to 8.00 at human recombinant FAAH and less than 6.00 at human recombinant MAGL.
Consider `O=C(NC1CCCCC1)Oc1cccc(-c2cncc(-c3ccno3)c2)c1` [Example 107, 3-(5-(isoxazol-5-yl)pyridin-3-yl)phenyl cyclohexylcarbamate], for which the figures for the pIC50 at human recombinant FAAH and at human recombinant MAGL were 7.00 to 8.00 and less than 5.00, respectively.
For the molecule `Cc1cc(OC(=O)NCC2CCCCC2)cc(-c2cncc(-c3ncco3)c2)c1` [Example 99, 3-methyl-5-(5-(oxazol-2-yl)pyridin-3-yl)phenyl (cyclohexylmethyl)carbamate], the pIC50 on human recombinant FAAH was 6.00 to 7.00; on human recombinant MAGL, approximately 5.00.
As for `CCCCCCCCNC(=O)Oc1cccc(-c2cncc(C(=O)NO)c2)c1` [Example 23, 3-(5-(hydroxycarbamoyl)pyridin-3-yl)phenyl octylcarbamate], the pIC50 at human recombinant FAAH was less than 6.00; at human recombinant MAGL it was less than 5.00.
On to `COc1ccc(OC(=O)NC2CCCC2)cc1-c1cncc(-c2nccs2)c1` [Example 124, 4-methoxy-3-(5-(thiazol-2-yl)pyridin-3-yl)phenyl cyclopentylcarbamate], for which the values for the pIC50 on human recombinant FAAH and at human recombinant MAGL were 6.00 to 7.00 and less than 5.00, respectively.
As to `O=Cc1cncc(-c2cccc(OC(=O)NC3CCCC3)c2)c1` [Example 18, 3-(5-formylpyridin-3-yl)phenyl cyclopentylcarbamate], the pIC50 at human recombinant FAAH is 7.00 to 8.00; at human recombinant MAGL, less than 5.00.
In the case of `CCCCCCCCNC(=O)Oc1ccc(OC)c(-c2cncc(-c3nccs3)c2)c1` [Example 121, 4-methoxy-3-(5-(thiazol-2-yl)pyridin-3-yl)phenyl octylcarbamate], the pIC50 on human recombinant FAAH is 7.00 to 8.00; on human recombinant MAGL it was approximately 5.00.
For `O=C(NCc1ccccc1)Oc1cccc(-c2cc(-c3nnco3)ccn2)c1` [Example 258, 3-(4-(1,3,4-oxadiazol-2-yl)pyridin-2-yl)phenyl benzylcarbamate], the results for the pIC50 at human recombinant FAAH and on human recombinant MAGL were 6.00 to 7.00 and less than 5.00, respectively.
As for `O=C(NC1CCCCC1)Oc1cccc(-c2cncc(-c3cccs3)c2)c1` [Example 63, 3-(5-(thiophen-2-yl)pyridin-3-yl)phenyl cyclohexylcarbamate], the figures for the pIC50 on human recombinant FAAH and on human recombinant MAGL were 7.00 to 8.00 and less than 5.00, respectively.
Consider `COc1ccc(OC(=O)NCC2CCCCC2)cc1-c1cncc(-c2ncn[nH]2)c1` [Example 233, 3-(5-(1H-1,2,4-triazol-5-yl)pyridin-3-yl)-4-methoxyphenyl (cyclohexylmethyl) carbamate], for which the pIC50 on human recombinant FAAH is 6.00 to 7.00; at human recombinant MAGL it was approximately 5.00.
For the molecule `COc1ccc(OC(=O)NC2CCCCC2)cc1-c1cncc(-c2nccs2)c1` [Example 125, 4-methoxy-3-(5-(thiazol-2-yl)pyridin-3-yl)phenyl cyclohexylcarbamate], the negative logarithm of the IC50 (pIC50) at human recombinant FAAH is 6.00 to 7.00; on human recombinant MAGL, less than 5.00.
Take `COc1ccc(OC(=O)NC2CCCCCC2)cc1-c1cncc(-c2nccs2)c1` [Example 126, 4-methoxy-3-(5-(thiazol-2-yl)pyridin-3-yl)phenyl cycloheptylcarbamate]: the pIC50 on human recombinant FAAH is 6.00 to 7.00; on human recombinant MAGL it was less than 5.00.
Taken in the same sequence, the figures for `COC(=O)c1cncc(-c2cccc(OC(=O)NC34CC5CC(CC(C5)C3)C4)c2)c1` [Example 13, methyl 5-(3-((((1s,3s)-adamantan-1-yl)carbamoyl)oxy)phenyl)nicotinate] were less than 6.00 and less than 5.00.
Take `O=C(NCC1CCCCC1)Oc1cccc(-c2cncc(C(F)(F)F)c2)c1` [Example 31, 3-(5-(trifluoromethyl)pyridin-3-yl)phenyl (cyclohexylmethyl)carbamate]: the pIC50 on human recombinant FAAH was 7.00 to 8.00; at human recombinant MAGL, less than 6.00.
Taken in the same sequence, the figures for `Cc1ccc(-c2cncc(-c3ncco3)c2)cc1OC(=O)NC1CCCCCCC1` [Example 98, 2-methyl-5-(5-(oxazol-2-yl)pyridin-3-yl)phenyl cyclooctylcarbamate] were less than 6.00 and approximately 6.00.
On to `COc1ccc(OC(=O)NC2CCCCCC2)cc1-c1cncc(-c2ncn[nH]2)c1` [Example 237, 3-(5-(1H-1,2,4-triazol-5-yl)pyridin-3-yl)-4-methoxyphenyl cycloheptylcarbamate], for which the pIC50 on human recombinant FAAH is 6.00 to 7.00; at human recombinant MAGL it was less than 5.00.
With `O=C(NCc1ccccc1)Oc1cccc(-c2cncc(-c3ccco3)c2)c1` [Example 49, 3-(5-(furan-2-yl)pyridin-3-yl)phenyl benzylcarbamate], the results for the pIC50 at human recombinant FAAH and on human recombinant MAGL were 6.00 to 7.00 and less than 5.00, respectively.
`O=C(NCC1CCCCC1)Oc1cccc(-c2cncc(-c3ccco3)c2)c1` [Example 48, 3-(5-(furan-2-yl)pyridin-3-yl)phenyl (cyclohexylmethyl)carbamate]: the pIC50 is 7.00 to 8.00 on human recombinant FAAH and approximately 5.00 on human recombinant MAGL.
Take `CN(C)c1ccc(OC(=O)NC2CCCCCC2)cc1-c1cncc(-c2nnco2)c1` [Example 185, 3-(5-(1,3,4-oxadiazol-2-yl)pyridin-3-yl)-4-(dimethylamino)phenyl cycloheptylcarbamate]: the pIC50 is 6.00 to 7.00 on human recombinant FAAH and less than 5.00 at human recombinant MAGL.
Taken in the same sequence, the figures for `COc1ccc(OC(=O)NC2CCCCC2)cc1-c1cncc(-c2nnn[nH]2)c1` [Example 254, 3-(5-(1H-tetrazol-5-yl)pyridin-3-yl)-4-methoxyphenyl cyclohexylcarbamate] were less than 6.00 and less than 5.00.
As for `CCCCCCCCNC(=O)Oc1ccc(O)c(-c2cncc(-c3nnn[nH]3)c2)c1` [Example 244, 3-(5-(1H-tetrazol-5-yl)pyridin-3-yl)-4-hydroxyphenyl octylcarbamate], the values for the pIC50 at human recombinant FAAH and on human recombinant MAGL were 6.00 to 7.00 and less than 5.00, respectively.
On to `O=C(NCc1ccccc1)Oc1cccc(-c2cncc(-c3ncn[nH]3)c2)c1` [Example 221, 3-(5-(1H-1,2,4-triazol-5-yl)pyridin-3-yl)phenyl benzyl carbamate], for which the figures for the pIC50 on human recombinant FAAH and on human recombinant MAGL were 6.00 to 7.00 and less than 5.00, respectively.
Regarding `O=C(Nc1ccccc1)Oc1ccc(OC(F)(F)F)c(-c2cncc(-c3nnco3)c2)c1` [Example 203, 3-(5-(1,3,4-oxadiazol-2-yl)pyridin-3-yl)-4-(trifluoromethoxy)phenyl phenylcarbamate], the values for the pIC50 on human recombinant FAAH and on human recombinant MAGL were less than 6.00 and less than 5.00, respectively.
For the molecule `COc1ccc(OC(=O)NC2CCCCCC2)cc1-c1cncc(-c2nnn[nH]2)c1` [Example 255, 3-(5-(1H-tetrazol-5-yl)pyridin-3-yl)-4-methoxyphenyl cycloheptylcarbamate], the pIC50 on human recombinant FAAH is less than 6.00; at human recombinant MAGL, less than 5.00.
For the molecule `COc1ccc(OC(=O)NC2CCCCC2)cc1-c1cncc(-c2ncn[nH]2)c1` [Example 236, 3-(5-(1H-1,2,4-triazol-5-yl)pyridin-3-yl)-4-methoxyphenyl cyclohexyl carbamate], the pIC50 on human recombinant FAAH is 6.00 to 7.00; at human recombinant MAGL it was less than 5.00.
On to `O=C(NC1CCCC1)Oc1cccc(-c2cncc(-c3nccs3)c2)c1` [Example 118, 3-(5-(thiazol-2-yl)pyridin-3-yl)phenyl cyclopentylcarbamate], for which the pIC50 is approximately 7.00 at human recombinant FAAH and less than 5.00 on human recombinant MAGL.
In the case of `CCCCCCCNC(=O)Oc1cccc(-c2cncc(C(=O)NO)c2)c1` [Example 22, 3-(5-(hydroxycarbamoyl)pyridin-3-yl)phenyl heptylcarbamate], the results for the negative-log IC50 (pIC50) at human recombinant FAAH and at human recombinant MAGL were 6.00 to 8.00 and less than 6.00, respectively.
For the molecule `O=C(NCC1CCCCC1)Oc1cc(O)cc(-c2cncc(-c3nnco3)c2)c1` [Example 161, 3-(5-(1,3,4-oxadiazol-2-yl)pyridin-3-yl)-5-hydroxyphenyl (cyclohexylmethyl)carbamate], the values for the pIC50 at human recombinant FAAH and on human recombinant MAGL were 7.00 to 8.00 and 4.30 to 5.00, respectively.
Take `COc1ccc(OC(=O)NC2CCCC2)cc1-c1cncc(-c2nnco2)c1` [Example 169, 3-(5-(1,3,4-oxadiazol-2-yl)pyridin-3-yl)-4-methoxyphenyl cyclopentylcarbamate]: the pIC50 at human recombinant FAAH is 7.00 to 8.00; on human recombinant MAGL, less than 5.00.
Taken in the same sequence, the figures for `O=C(NC1CCCC1)Oc1cc(O)cc(-c2cncc(-c3nnco3)c2)c1` [Example 163, 3-(5-(1,3,4-oxadiazol-2-yl)pyridin-3-yl)-5-hydroxyphenyl cyclopentylcarbamate] were 7.00 to 8.00 and less than 4.30.
Regarding `COc1ccc(OC(=O)NCC2CCCCC2)cc1-c1cncc(-c2nnco2)c1` [Example 168, 3-(5-(1,3,4-oxadiazol-2-yl)pyridin-3-yl)-4-methoxyphenyl (cyclohexylmethyl)carbamate], the pIC50 is 6.00 to 7.00 on human recombinant FAAH and less than 5.00 at human recombinant MAGL.
As to `COc1ccc(OC(=O)NCc2ccccc2)cc1-c1cncc(-c2cccs2)c1` [Example 67, 4-methoxy-3-(5-(thiophen-2-yl)pyridin-3-yl)phenyl benzylcarbamate], the pIC50 is less than 6.00 at human recombinant FAAH and less than 5.00 at human recombinant MAGL.
On to `CCCCCCCCNC(=O)Oc1cccc(-c2cncc(-c3nccs3)c2)c1` [Example 115], for which the pIC50 is 8.00 to 9.00 on human recombinant FAAH and approximately 5.00 on human recombinant MAGL.
With `O=C(Oc1cccc(-c2cncc(-c3nnco3)c2)c1)N1CCCCC1` [Example 141, 3-(5-(1,3,4-oxadiazol-2-yl)pyridin-3-yl)phenyl piperidine-1-carboxylate], the pIC50 is approximately 6.00 on human recombinant FAAH and less than 5.00 on human recombinant MAGL.
For `O=C(NCc1ccccc1)Oc1cccc(-c2cncc(-c3nnn[nH]3)c2)c1` [Example 240, 3-(5-(1H-tetrazol-5-yl)pyridin-3-yl)phenyl benzylcarbamate], the pIC50 on human recombinant FAAH is less than 6.00; on human recombinant MAGL it was less than 5.00.
For `O=C(NC1CCCCCC1)Oc1ccc(O)c(-c2cncc(-c3nnn[nH]3)c2)c1` [Example 249, 3-(5-(1H-tetrazol-5-yl)pyridin-3-yl)-4-hydroxyphenyl cycloheptylcarbamate], the pIC50 is less than 6.00 at human recombinant FAAH and less than 5.00 at human recombinant MAGL.

The record behind these values is patent US20250129027A1 (APOGEE PHARMACEUTICALS, INC., priority 2023, published 2025).
